Measurements taken from CN106344577A, “Fistulains A在抗幽门螺杆菌药物中的应用” (Quanjiao Xianqi Pharmaceutical Technology Co Ltd, priority 2016, dated 2017).
≈ marks a conversion by molar mass, not a printed value.

Test system: Helicobacter pylori (幽门螺杆菌)
Assay: Agar dilution method, MIC against H. pylori
Assay type: cell-based
Settings: same value for each of 6 strains: 5 random clinical strains (Hp001, Hp003, Hp004, Hp018, Hp036) and standard strain ATCC43504, complete growth inhibition, 37℃, 72 h, microaerobic, read-out: minimum inhibitory concentration (MIC)

MIC: 3.3 µg/mL (≈ 9.44 µM)
Compound: CC1(C)S[C@@H]2[C@H](NC(=O)[C@H](N)c3ccccc3)C(=O)N2[C@H]1C(=O)O [氨苄西林]
